This passage reports EC50 results from patent publication US12077506B2, “Indane derivatives as hypoxia inducible factor-2(α) inhibitors” (priority 2019, dated 2024).

This assay addresses HIF-2α (Homo sapiens (Human), UniProt Q99814). Nature of the assay: VEGF ELISA Assay. In kind it is cell-based. As for the experimental part:
The ability of the disclosed compounds to inhibit HIF-2α was measured by determining VEGF expression in 786-O cells. About 7500 786-O cells were seeded into each well of a 96-well, white, clear bottom plate (07-200-566, Fisher Scientific) with 200 ul growth medium. Four hours later, compounds were dispensed into wells by Tecan D300e digital dispenser with starting concentration of 10 uM and ½ log of dilution down to 1 nM as final concentration. Each concentration of treatment was performed in duplicate. About 20 hours later, medium was removed and fresh medium was added, followed by compounds treatment as described above. After 24 hours, cell culture medium was collected to determine VEGF concentration using an ELISA kit (R&D systems, cat #DVE00) following the manufacturer's instruction.
The EC50 was calculated by GraphPad Prism using the dose-response-inhibition (four parameter) equation. The plate with cells was then subjected to CellTiter-Glo luminescence cell viability assay (Promega) to determine the effect of these compounds on cell numbers after the above treatment.

The mark [1] stands for this setting: VEGF expression in 786-O cells, ELISA of culture medium, read-out: EC50.

Read-outs that look alike come from different tables or passages of the source.

HIF-2α, sequence (Q99814 whole entry): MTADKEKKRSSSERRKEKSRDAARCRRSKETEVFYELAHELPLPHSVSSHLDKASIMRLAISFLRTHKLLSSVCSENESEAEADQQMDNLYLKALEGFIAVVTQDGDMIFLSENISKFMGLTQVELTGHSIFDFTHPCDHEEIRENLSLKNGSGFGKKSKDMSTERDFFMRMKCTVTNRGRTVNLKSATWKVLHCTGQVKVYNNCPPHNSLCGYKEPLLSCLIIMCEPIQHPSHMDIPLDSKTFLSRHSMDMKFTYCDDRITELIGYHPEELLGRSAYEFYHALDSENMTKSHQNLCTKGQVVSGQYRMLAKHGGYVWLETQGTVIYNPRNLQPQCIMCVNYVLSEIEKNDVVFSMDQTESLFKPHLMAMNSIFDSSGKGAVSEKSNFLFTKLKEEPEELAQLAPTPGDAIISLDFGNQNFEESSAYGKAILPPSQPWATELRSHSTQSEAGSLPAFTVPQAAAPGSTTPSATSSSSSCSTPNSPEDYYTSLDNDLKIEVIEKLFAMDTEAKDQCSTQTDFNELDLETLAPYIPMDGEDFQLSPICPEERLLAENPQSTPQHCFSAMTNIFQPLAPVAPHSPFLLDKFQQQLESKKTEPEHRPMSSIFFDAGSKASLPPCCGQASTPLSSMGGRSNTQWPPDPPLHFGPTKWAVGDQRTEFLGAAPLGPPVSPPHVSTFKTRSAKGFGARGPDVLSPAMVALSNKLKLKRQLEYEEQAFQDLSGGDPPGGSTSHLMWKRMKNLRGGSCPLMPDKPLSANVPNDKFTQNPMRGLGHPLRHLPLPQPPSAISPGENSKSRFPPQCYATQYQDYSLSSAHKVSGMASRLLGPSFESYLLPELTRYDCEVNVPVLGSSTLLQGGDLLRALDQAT

“7-(difluoromethyl)-6-(3,5-difluorophenoxy)-2,2,3,3-tetrafluoro-2,3-dihydro-1H-inden-1-ol [I-4]”: the EC50 under setting [1] came to 4 nM. Regarding `N#Cc1cc(F)cc(Oc2ccc3c(c2C(F)F)C(O)C(F)(F)C3(F)F)c1` (stereo not shown) [I-1, 3-((4-(difluoromethyl)-1,1,2,2-tetrafluoro-3-hydroxy-2,3-dihydro-1H-inden-5-yl)oxy)-5-fluorobenzonitrile], the EC50 under setting [1] came to 6 nM.

As for `CC1(O)c2c(ccc(Oc3cc(F)cc(C#N)c3)c2C(F)F)C(F)(F)C1(F)F` (stereo not shown) [I-2, 3-((4-(difluoromethyl)-1,1,2,2-tetrafluoro-3-hydroxy-3-methyl-2,3-dihydro-1H-inden-5-yl)oxy)-5-fluorobenzonitrile], the EC50 under setting [1] is 770 nM.

In the case of `N#Cc1cc(F)cc(Oc2ccc3c(c2C(F)F)C(N)C(F)(F)C3(F)F)c1` (stereo not shown) [I-3, 3-((3-amino-4-(difluoromethyl)-1,1,2,2-tetrafluoro-2,3-dihydro-1H-inden-5-yl)oxy)-5-fluorobenzonitrile], the EC50 under setting [1] came to 166 nM. For `Cc1cc(C#N)cc(Oc2ccc3c(c2C(F)F)C(O)C(F)(F)C3(F)F)c1` (stereo not shown) [I-5, 3-((4-(difluoromethyl)-1,1,2,2-tetrafluoro-3-hydroxy-2,3-dihydro-1H-inden-5-yl)oxy)-5-methylbenzonitrile], the EC50 under setting [1] was 67 nM. `N#Cc1cc(Cl)cc(Oc2ccc3c(c2C(F)F)C(O)C(F)(F)C3(F)F)c1` (stereo not shown) [I-6, 3-chloro-5-((4-(difluoromethyl)-1,1,2,2-tetrafluoro-3-hydroxy-2,3-dihydro-1H-inden-5-yl)oxy)benzonitrile]: the EC50 under setting [1] is 27 nM. Still for that read-out and setting: with `OC1c2c(ccc(Oc3cc(F)cc(Cl)c3)c2C(F)F)C(F)(F)C1(F)F` (stereo not shown) [I-7, 6-(3-chloro-5-fluorophenoxy)-7-(difluoromethyl)-2,2,3,3-tetrafluoro-2,3-dihydro-1H-inden-1-ol] the figure was 8 nM. For the molecule `OC1c2c(ccc(OC3CC(F)(F)C3)c2C(F)F)C(F)(F)C1(F)F` (stereo not shown) [I-8, 6-(3,3-difluorocyclobutoxy)-7-(difluoromethyl)-2,2,3,3-tetrafluoro-2,3-dihydro-1H-inden-1-ol], under setting [1], the EC50 stood at 105 nM. For `N#Cc1cncc(Oc2ccc3c(c2C(F)F)C(O)C(F)(F)C3(F)F)c1` (stereo not shown) [I-9, 5-((4-(difluoromethyl)-1,1,2,2-tetrafluoro-3-hydroxy-2,3-dihydro-1H-inden-5-yl)oxy)nicotinonitrile], the EC50 under setting [1] amounted to 147 nM. For `OC1c2c(ccc(Oc3cncc(F)c3)c2C(F)F)C(F)(F)C1(F)F` (stereo not shown) [I-10, 7-(difluoromethyl)-2,2,3,3-tetrafluoro-6-((5-fluoropyridin-3-yl)oxy)-2,3-dihydro-1H-inden-1-ol], under setting [1], the EC50 worked out at 54 nM.

`[2H][C@]1(O)c2c(ccc(Oc3cc(F)cc(C#N)c3)c2C#N)C(F)(F)C1(F)F` [I-13a, (S)-5-(3-cyano-5-fluorophenoxy)-1,1,2,2-tetrafluoro-3-hydroxy-2,3-dihydro-1H-indene-4-carbonitrile-3-d] displayed an EC50 of 464 nM. `[2H][C@@]1(O)c2c(ccc(Oc3cc(F)cc(C#N)c3)c2C#N)C(F)(F)C1(F)F` [I-13b, (R)-5-(3-cyano-5-fluorophenoxy)-1,1,2,2-tetrafluoro-3-hydroxy-2,3-dihydro-1H-indene-4-carbonitrile-3-d] yielded an EC50 of 12 nM. Still for that read-out and setting: next, `[2H]C1(O)c2c(ccc(Oc3cncc(F)c3)c2C#N)C(F)(F)C1(F)F` (stereo not shown) [I-14, 1,1,2,2-tetrafluoro-5-((5-fluoropyridin-3-yl)oxy)-3-hydroxy-2,3-dihydro-1H-indene-4-carbonitrile-3-d]: 183 nM. On to `CC1(O)c2c(ccc(Oc3cc(F)cc(C#N)c3)c2C#N)C(F)(F)C1(F)F` (stereo not shown) [I-15, 5-(3-cyano-5-fluorophenoxy)-1,1,2,2-tetrafluoro-3-hydroxy-3-methyl-2,3-dihydro-1H-indene-4-carbonitrile], for which, under setting [1], the EC50 stood at 287 nM. On to `CC1(O)c2c(ccc(Oc3cc(F)cc(C#N)c3)c2Br)C(F)(F)C1(F)F` (stereo not shown) [I-16, 3-((4-bromo-1,1,2,2-tetrafluoro-3-hydroxy-3-methyl-2,3-dihydro-1H-inden-5-yl)oxy)-5-fluorobenzonitrile], for which the EC50 under setting [1] was 2070 nM. On to `C=Cc1c(Oc2cc(F)cc(C#N)c2)ccc2c1C(C)(O)C(F)(F)C2(F)F` (stereo not shown) [I-17, 3-fluoro-5-((1,1,2,2-tetrafluoro-3-hydroxy-3-methyl-4-vinyl-2,3-dihydro-1H-inden-5-yl)oxy)benzonitrile], for which the EC50 under setting [1] is 5770 nM.

For `CCc1c(Oc2cc(F)cc(C#N)c2)ccc2c1C(C)(O)C(F)(F)C2(F)F` (stereo not shown) [I-18, 3-((4-ethyl-1,1,2,2-tetrafluoro-3-hydroxy-3-methyl-2,3-dihydro-1H-inden-5-yl)oxy)-5-fluorobenzonitrile], under setting [1], the EC50 stood at 2500 nM.

Regarding `N#Cc1cc(F)cc(Oc2ccc3c(c2C(F)F)C(O)C(F)(F)C3F)c1` (stereo not shown) [I-19, 3-((4-(difluoromethyl)-1,2,2-trifluoro-3-hydroxy-2,3-dihydro-1H-inden-5-yl)oxy)-5-fluorobenzonitrile], the EC50 under setting [1] was 151 nM.

In the case of `N#Cc1cc(F)cc(Oc2ccc3c(c2C(F)F)C(O)C(F)(Cl)C3(F)F)c1` (stereo not shown) [I-20, 3-((2-chloro-4-(difluoromethyl)-1,1,2-trifluoro-3-hydroxy-2,3-dihydro-1H-inden-5-yl)oxy)-5-fluorobenzonitrile], the EC50 under setting [1] is 20 nM.
